# Measured values published in patent publication US20090170749A1, “Novel Compounds Which Interact With PEA-15” (Institut National De La Sante Et De La Recherche Medicale …, priority 2005, published 2009).
# “Also recorded” adds a separate entry of the source.
# How the values were obtained:
# GFP-PEA-15 = molecular target: T1, GFP-PEA-15 (Mus musculus, UniProt Q62048); test: Detection of the interaction of 6D6-1 with GFP-PEA-15 by FRET in 3T3-GFP-PEA-15 cells; type: cell-based; conditions: 6D6-1 tested at 10^-4 M and 10^-5 M, 60 minutes, excitation 465 nm
# T1 construct: expressed in transfected cells
# Experimental: The cell line 3T3 expressing the GFP-PEA-15 (3T3-GFP-PEA-15 cell) was obtained as described by FORMSTECHER et al. (Dev. Cell., 2001, 1:239) by transfection of NIH3T3 cells with a EGFP-PEA-15 plasmide obtained as described by KITSBERG et al. (J. Neurosci., 1999, 19: 8244).
# Clones resistant to the neomycin (G418) were selected and cultivated in a DMEM (Roche) medium supplemented with 10% of foetal calf serum, 2 mM of glutamine, penicillin (5 IU/ml) and streptomycin ([…]).
# The GFP-PEA-15 protein expression was checked by the measurement of the fluorescence of the living cells and a WESTERN transfer analysis with an anti-GFP antibody (Roche, cat. No. 1,814,460 mixture of two monoclonal antibodies obtained from a mouse (clone 7.1 and clone 13.1)) and an anti-PEA-15 (rabbit polyclonal antibody, Sharif et al., Neuroscience, 126: 263, 2004).
# The 3T3-GFP-PEA-15 cells are then cultivated up to confluence in a HAM-F12 medium comprising penicillin (10 000 U/ml)/streptomycin (10 000 μg/ml), 7% of foetal calf serum (BIOWHITTAKER) before the fluorescence resonance energy transfer (FRET) experiences. […]
# After adding the 6D6-1 compound, the cells are gently agitated (100 rpm) for 60 minutes before the fluorescence read-out, in order to enable the compounds to diffuse and enter into the cells. […]
# The GFP protein excited at 465 nm emits a fluorescence signal at 535 nm.
# ERK = test: Effect of 6D6-1 on ERK and PEA-15 subcellular location in primary astrocyte cultures (confocal microscopy); type: cell-based, mouse; conditions: primary astrocytes, 24 hours without serum; 50 μM 6D6-1 for 2 hours 15 minutes
# Experimental: Primary astrocyte cultures were prepared from cortex and striatum of mouse embryos (day 16) as described by ARAUJO et al. (J. Biol. Chem., 1993, 268: 5911).
# The primary astrocyte cultures were maintained for 24 hours in the absence of serum, a condition known to induce a mainly cytoplasmic location of ERK.
# The cells were then treated or not with 50 μM of the 6D6-1 compound for 2 hours 15 minutes.
# The subcellular location of ERK and PEA-15 was observed by confocal microscopy after labeling the cells with fluorescent antibodies.
# The cells were washed twice with PBS (Dulbecco phosphate saline buffer, without CaCl2 nor MgCl2, Sigma), and fixed with 4% paraformaldehyde in PBS (pH 7.5), for 15 minutes, then washed twice with PBS comprising 0.1 M of glycine, at ambient temperature.
# Then, the cells were incubated for 5 minutes in PBS containing 0.2% of X-100 triton.
# The non-specific sites were blocked with PBS containing 10% of normal goat serum (NGS) for one hour at ambient temperature.
# Then the cells were incubated overnight at 4° C. with PEA-15 specific antibodies (rabbit polyclonal antibody, Sharif et al., Neuroscience, 2004) or ERK specific antibodies (rabbit polyclonal antibody, Santa Cruz K-23 (ref. Sc-94)), diluted in PBS containing 1.5% of NGS. […]
# [1] = molecular target: T2, GST-PEA-15 fusion protein (Mus musculus, UniProt Q62048); test: 6D6-1/PEA-15 protein interaction: fluorescence of glutathione Sepharose beads carrying GST-PEA-15; type: binding
# T2 construct: made in house
# Experimental: The GST-PEA-15 fusion protein was obtained according to the protocol described by Kitsberg et al. (J. Neurosci, 1999, 19: 8244).
# The GST-PEA-15 fusion proteins were recovered after lysis of bacteria and were incubated together with a Sepharose bead covered with glutathione.
# The beads thus obtained are incubated in the presence of 1 or 5 μM of 6D6-1, in a 20 mM Tris-HCl, pH 7.4; 100 mM NaCl; 1 mM MgCl2; 1% Triton X-100 buffer).
# After a series of three washings, the beads are dried on a cellulose membrane and the fluorescence is quantified by means of a phosphoimager (Biorad), by measuring the fluorescence of the lissamine with excitation at 543 nm and measurement of the emission at 590 nm.
# The results are the average of three independent experiences.
# T2 sequence (Q62048 whole entry, the tested form may be a part): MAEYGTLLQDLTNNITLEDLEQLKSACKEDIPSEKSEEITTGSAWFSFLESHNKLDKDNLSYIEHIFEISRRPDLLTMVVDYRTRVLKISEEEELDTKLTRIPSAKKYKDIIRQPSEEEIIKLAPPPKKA
# T1 sequence (Q62048 whole entry): as the sequence (Q62048 whole entry, the tested form may be a part) above
substance,measurement,setting,value
1-methyl-piperidin-4-His(Bzl)-Lys(o-Lissamine)-1-methyl-1H-imidazol-4-yl)-acetamide [Compound 6D6-1],"fluorescence resonance energy transfer (FRET) on binding to GFP-PEA-15, fluorescence signal at 590 nm",GFP-PEA-15,enables a fluorescence resonance energy transfer (FRET)
same,subcellular location of ERK,ERK,relocation of the ERK protein in the core; also recorded: relocation of ERK in the nucleus
same,subcellular location of PEA-15,ERK,remains cytoplasmic
same,average intensity of fluorescence of beads carrying GST-PEA-15,"[1]; 1 or 5 μM 6D6-1, excitation 543 nm, emission 590 nm, average of three independent experiences",depends upon the concentration of the compound
same,interaction with PEA-15 protein,[1]; general statement of the inventors' observation,able to interact in a specific way with a PEA-15 protein
